Read-outs that look alike come from different tables or passages of the source. Marks after values point to notes of the source that are not given here.

Data on 4 molecules can be found in patent US10398142B2, “Polycationic amphiphiles as antimicrobial agents” (priority 2013, dated 2019).

For one series, the system named is S. aureus biofilms. The experiment in a line: Crystal violet staining and confocal microscopy of pre-established biofilms. In kind it is cell-based, Staphylococcus aureus. Conditions: compared to the aqueous control or norspermidine; 16 h post-treatment. On the procedure: Left: Submerged S. aureus biofilms 16 h post-treatment with the indicated final well concentration of compound. Middle: Biofilms stained with 1% crystal violet. Right: Confocal microscopy images of biofilms 16 h post-treatment.
The inventors have determined that both cationic character and alkyl side chains are important for biofilm eradication.

The subject of a further series is E. faecalis biofilms. Kind of series: Minimum biofilm eradication concentration (MBEC), regrowth assay. In kind it is cell-based, Enterococcus faecalis. The method in brief: (§1)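 Static 24 h biofilms at 37° C. (BHI for S. aureus, Todd Hewitt for E. faecalis), then 16 h compound exposure, PBS washes and overnight regrowth in fresh media. MBEC is the lowest concentration giving final OD595 below 0.1; four replicates per concentration.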

The test system of series [1] is CA-MRSA (USA300-0114) biofilms. Described as above. Conditions: Table 5; USA300-0114. The class given is cell-based, Staphylococcus aureus. In short, it runs like this: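 CA-MRSA USA300-0114 biofilms grown statically 24 h at 37 °C in BHI, then exposed to compound for 16 h at 37 °C. After PBS washes, biofilms regrown overnight in fresh media; MBEC is the lowest concentration giving OD595 below 0.1, four replicates per concentration.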

In series [2] the test system is red blood cells (defibrinated sheep blood). Kind of series: Hemolysis assay (Lysis20). Conditions: Table 4; concentration at which less than 20% of red blood cells are lysed. In short, it runs like this: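 Defibrinated sheep red blood cells were incubated with compounds serially diluted in PBS, and the suspensions were read by OD. 1% Triton X served as 100% lysis and PBS as 0% lysis. Lysis20 is the concentration (μM) at which less than 20% of cells are lysed.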

For series [3], the system named is S. aureus (MSSA, SH1000) biofilms. Kind of series: Minimum biofilm eradication concentration (MBEC), regrowth assay. In kind it is cell-based, Staphylococcus aureus. Conditions: for MBEC S. aureus: Table 2, pre-established biofilm, ± values varied between 50 and 100 μM for the six trials; for MBEC MSSA: Table 5, SH1000. The method in brief: as §1
The test system of series [4] is CA-MRSA (USA300-0114). The experiment in a line: Minimum inhibitory concentration (MIC), broth microdilution. Conditions: Table 4; USA300-0114; read-out: MIC CA-MRSA. In kind it is cell-based, Staphylococcus aureus. The method in brief: (§2)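 Two-fold serial dilutions (twelve concentrations) from aqueous stock; inoculum ca. 10^6 cfu/mL in Mueller-Hinton media, static incubation at 37 °C for 72 h. MIC read visually as lowest concentration with no visible growth, majority of three independent experiments.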

Another series concerns HA-MRSA (ATCC 33591). The description is as above. The class given is cell-based, Staphylococcus aureus. The conditions noted are these: Table 4; ATCC 33591; read-out: MIC HA-MRSA. In short, it runs like this:
as §2

For series [5], the system named is Staphylococcus aureus MSSA (SH1000). The series is described as above. The class given is cell-based. The method in brief:
(§3)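 Broth microdilution: two-fold serial dilutions (twelve concentrations) mixed 1:1 with overnight cultures diluted to ca. 10^6 cfu/mL in Mueller-Hinton media, incubated statically at 37° C for 72 hours. MIC is lowest concentration with no growth visible to the naked eye, majority of three independent experiments.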

The test system of series [6] is Escherichia coli (MC4100). The series is described as above. The class given is cell-based. Conditions: read-out: MIC E. coli. In short, it runs like this:
as §3

Series [7] concerns Pseudomonas aeruginosa (PAO1). Described as above. In kind it is cell-based. Conditions: read-out: MIC P. aeruginosa. In short, it runs like this: as §3
Series [8] has as its system Enterococcus faecalis (OG1RF). Described as above. The class given is cell-based. The conditions noted are these: read-out: MIC E. faecalis. In short, it runs like this:
as §3

The test system of series [9] is CA-MRSA (USA300-0114). The experiment in a line: Resistance development, liquid culture serial passage. Conditions: over 24 days (>500 generations). The class given is cell-based, Staphylococcus aureus. On the procedure: (§4) Resistance development such as liquid culture resistance assay was performed. […] Once a day, an aliquot of bacterial culture from the highest concentration allowing bacterial growth was diluted 1:10,000 in fresh media containing a range of antibacterial compound. This process was repeated for several hundred generations.
(§5) Resistance Development Assays: Liquid culture serial passage protocols, in which bacteria are successively grown at sub-lethal concentrations of antibacterial compound, were employed.

The next series relates to MSSA (SH1000). The series is described as above. The class given is cell-based, Staphylococcus aureus. The conditions noted are these: over 24 days (>500 generations). As to the method:
as §4, §5

The subject of series [10] is Staphylococcus aureus, Enterococcus faecalis, Escherichia coli and Pseudomonas aeruginosa. Kind of series: MIC, summary statements over the four bacteria. The class given is cell-based. Conditions: comparison of MIC values. As to the method: The term “minimum inhibitory concentration (MIC)” means the lowest concentration of an antimicrobial agent that will inhibit the visible growth of a microorganism after overnight incubation. MIC values against bacteria, for example, the Gram-positive Staphylococcus aureus and Enterococcus faecalis and the Gram-negative Escherichia coli and Pseudomonas aeruginosa were determined by standard methods. See also P. A. Wayne, Methods for Dilution Antimicrobial Tests for Bacteria that Grow Aerobically; Approved Standard, Ninth Edition, 2012, CLSI Document M07-A9, Vol. 32 No. 2.
With nearly three-dozen amphiphiles varying in structure and cationic nature synthesized, minimum inhibitory concentration (MIC) values against the Gram-positive Staphylococcus aureus and Enterococcus faecalis and the Gram-negative Escherichia coli and Pseudomonas aeruginosa were determined by standard methods. […] The commercially available antibacterial agent benzalkonium chloride (benzyldimethyldodecylammonium chloride, Bn,12) was tested for comparison. The broth microdilution for determining MIC values was performed as previously reported.
MIC variation mostly hinged on the length of alkyl chain, where the dodecyl chain was generally found to be optimal. […]

The mark [11] stands for this setting: Table 2, pre-established biofilm, ± values varied between 50 and 100 μM for the six trials.
Where [12] appears, read: Table 1, read-out: MIC S. aureus.
Setting [13] is: Table 3, read-out: MIC S. aureus.
Where [14] appears, read: Table 4, SH1000, read-out: MIC MSSA.

On to `CCCCCCCCCCCC[N+](C)(C)CCC[N+](C)(C)CCC[N+](C)(C)CCCCCCCCCCCC.[Br-].[Br-].[I-]` [12,3,1,3,12], for which, in the series on S. aureus biofilms, the “effect against pre-established biofilms, crystal violet staining” value is recorded as “significant effect”. Besides, the entries for the “MBEC E. faecalis” value with E. faecalis biofilms (setting [11]) and in the series on E. faecalis biofilms (Table 5) were 50 µM and 200 µM, respectively. Besides, the “MBEC CA-MRSA” value in series [1] is 150 ± 50 µM. In [2], the Lysis20 stood at 8 µM. Also, the “MBEC S. aureus” value in [3] worked out at 100 µM. The “MBEC MSSA” value in [3] is 100 µM. The MIC is given as 0.5 µM with CA-MRSA (USA300-0114) [4]; 1 µM in the series on HA-MRSA (ATCC 33591); 0.5 µM in series [5] (setting [12]); 1 µM in series [5] (setting [13]); 1 µM in [5] (setting [14]); 1 µM in series [6] (Table 1). Besides, the minimal inhibitory concentration (MIC) in series [6] (Table 3) is on record as 2 µM; in series [7] (Table 1) it was 2 µM; in [7] (Table 3) it was 8 µM; in series [8] (Table 1), 1 µM; in series [8] (Table 3), 2 µM.

In the case of `CCCCCCCCCCCC[N+](C)(C)CCC[N+](C)(C)CCCCCCCCCCCC.[Br-].[Br-]` [12,3,12], the “effect against pre-established biofilms, crystal violet staining” value in the series with S. aureus biofilms was “significant effect”. Moreover, the figures for the “MBEC E. faecalis” value in the series with E. faecalis biofilms (setting [11]) and in the series with E. faecalis biofilms (Table 5) were 75 ± 25^a μM and 50 µM, respectively. Also, the “MBEC CA-MRSA” value in series [1] came out at 100 µM. Besides, the Lysis20 in series [2] was determined as 8 µM. For the same molecule, the “MBEC S. aureus” value in series [3] was 100 µM. Further, the “MBEC MSSA” value in series [3] was determined as 75 ± 25 µM. In addition, the MIC was determined as 1 µM in the series on CA-MRSA (USA300-0114) [4]; 2 µM in the series with HA-MRSA (ATCC 33591); 2 µM in [5] (setting [12]); 2 µM in [5] (setting [14]); 1 µM in series [6] (Table 1); 4 µM in series [7] (Table 1). The minimal inhibitory concentration (MIC) in series [8] (Table 1) stood at 1 µM. Besides, the “resistance in serial passage, CA-MRSA (USA300-0114)” value in the series with CA-MRSA (USA300-0114) [9] is recorded as “No resistance was observed”. In addition, in the series on MSSA (SH1000), the “resistance in serial passage, MSSA” value is “No resistance was observed”.

As to `CCCCCCCCCCCC[N+](C)(C)CCN(C)CCN(C)CC[N+](C)(C)CCCCCCCCCCCC.[Br-].[Br-]` [N4-12,0,0,12], the “fold more bioactive than (N4-12,0,0,0)” value in series [10] is on record as “about 8 fold”. For the same molecule, the “MBEC E. faecalis” value with E. faecalis biofilms (Table 5) was 75 ± 25 µM. For the same molecule, the “MBEC CA-MRSA” value in series [1] came to 100 µM. This molecule registered a Lysis20 in series [2] of 4 µM. For the same molecule, in [3], the “MBEC MSSA” value was determined as 50 µM. Besides, the MIC is listed as 1 µM with CA-MRSA (USA300-0114) [4]; 1 µM in the series with HA-MRSA (ATCC 33591); 1 µM in series [5] (setting [13]); 1 µM in series [5] (setting [14]); 1 µM in series [6] (Table 3); 4 µM in series [7] (Table 3). In addition, the MIC in series [8] (Table 3) is 1 µM.

For the molecule `C=CC[N+](C)(CC[N+](C)(C)CCCCCCCCCCCC)CC[N+](C)(CC=C)CC[N+](C)(C)CCCCCCCCCCCC.[Br-].[Br-].[Br-].[Br-]` (stereo not drawn) [N4-12,3A,3A,12], in series [10], the “fold more bioactive than (N4-12,0,0,0)” value is given as “about 8 fold”. In addition, the “MBEC E. faecalis” value with E. faecalis biofilms (Table 5) turned out to be 200 µM. In addition, the “MBEC CA-MRSA” value in series [1] worked out at 150 ± 50 µM. Besides, in series [2], the Lysis20 worked out at 8 µM. Further, in series [3], the “MBEC MSSA” value turned out to be 100 µM. In addition, the minimum inhibitory concentration (MIC) in the series on CA-MRSA (USA300-0114) [4] came to 1 µM; in the series with HA-MRSA (ATCC 33591), 0.5 µM; in series [5] (setting [13]) it was 1 µM; in series [5] (setting [14]), 1 µM; in series [6] (Table 3) it was 1 µM; in [7] (Table 3) it was 2 µM. The MIC in series [8] (Table 3) came to 1 µM. Moreover, the “resistance in serial passage, CA-MRSA (USA300-0114)” value in the series with CA-MRSA (USA300-0114) [9] is “No resistance was observed”. Besides, in the series with MSSA (SH1000), the “resistance in serial passage, MSSA” value is listed as “No resistance was observed”.
